The values that follow come from patent publication US20140309186A1, “Metabolomics-Based Identification of Disease-Causing Agents” (Georgia Tech Research Corporation, priority 2007, published 2014).

Data set [1] has as its system Jurkat cells. Particulars: literature search; cited from earlier work.
Data set [2] concerns OVCAR-3 cells. Particulars: literature; cited from earlier work.
Data set [3] deals with Jurkat cells. Nature of the data set: Growth inhibition of Jurkat cells, resazurin-based in vitro toxicology assay (TOX-8). It counts as cell-based, Human. Particulars: for activity at 100 µM: Homo sapiens, Jurkat, read-out: Jurkat cell growth as percentage of the untreated control.
The subject of another data set is malignant erythroblasts. To be noted: literature; cited from earlier work.
The next data set relates to RNA polymerase II. To be noted: literature; cited from earlier work.
A further data set has as its target T1, histone deacetylase 1 (Homo sapiens, UniProt Q13547).
T1 construct: host or cells: HT29 (cell context of the cited finding)
Particulars: literature; cited from earlier work.

The subject of another data set is HT29 colon cancer cells. Particulars: literature; cited from earlier work.
Another data set concerns human lymphoblast cells. Nature of the data set: Growth of human lymphoblast cells cultured in identical conditions. It counts as cell-based. Particulars: 50 μM. On the procedure: The positive association between lowered metabolite levels in Jurkat cells as predicted by CoMet and antiproliferative activity of the metabolite in that cell line is highly significant (Fisher's exact test two-tailed p-value=8.7×10^−6). Furthermore, when the effect of these metabolites on growth inhibition was tested in Jurkat and human lymphoblast cells cultured in identical conditions, a pattern of selectivity of the antiproliferative effect towards the cancer cell line became evident.

A further data set has as its system normal T lymphocytes. To be noted: cited from earlier work.
Data set [4] has as its system OVCAR-3 cells. Nature of the data set: Growth inhibition of OVCAR-3 cells, resazurin-based in vitro toxicology assay (TOX-8). In kind it is cell-based, human. To be noted: single metabolite, 100 μM, 72 hours.
For another data set, the system named is HeLa cell. To be noted: literature; cited from earlier work.
The target in data set [5] is T2, tryptophanyl-tRNA synthetase (Homo sapiens, UniProt P23381).
T2 construct: host or cells: HeLa (cell context of the cited finding)
T2 sequence (P23381 1-471): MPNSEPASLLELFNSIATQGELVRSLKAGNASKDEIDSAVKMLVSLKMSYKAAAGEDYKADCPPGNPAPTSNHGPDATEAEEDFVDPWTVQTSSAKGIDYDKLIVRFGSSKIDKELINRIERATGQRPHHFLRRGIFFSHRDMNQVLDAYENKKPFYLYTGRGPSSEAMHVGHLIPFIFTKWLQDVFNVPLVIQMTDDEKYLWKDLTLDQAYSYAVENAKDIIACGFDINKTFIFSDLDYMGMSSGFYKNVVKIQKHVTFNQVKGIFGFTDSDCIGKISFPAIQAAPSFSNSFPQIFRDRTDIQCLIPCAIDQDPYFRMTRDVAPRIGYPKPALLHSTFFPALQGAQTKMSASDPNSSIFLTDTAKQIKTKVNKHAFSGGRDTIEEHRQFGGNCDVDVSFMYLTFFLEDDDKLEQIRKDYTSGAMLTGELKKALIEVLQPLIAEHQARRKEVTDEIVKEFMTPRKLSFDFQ
To be noted: literature; cited from earlier work.

Another data set has as its system HL-60 cells. To be noted: literature; cited from earlier work.
The mark [6] stands for this setting: single metabolite, 100 μM, 72 hour treatment, control = 100%, lower = stronger inhibition.

T1 sequence (Q13547 whole entry): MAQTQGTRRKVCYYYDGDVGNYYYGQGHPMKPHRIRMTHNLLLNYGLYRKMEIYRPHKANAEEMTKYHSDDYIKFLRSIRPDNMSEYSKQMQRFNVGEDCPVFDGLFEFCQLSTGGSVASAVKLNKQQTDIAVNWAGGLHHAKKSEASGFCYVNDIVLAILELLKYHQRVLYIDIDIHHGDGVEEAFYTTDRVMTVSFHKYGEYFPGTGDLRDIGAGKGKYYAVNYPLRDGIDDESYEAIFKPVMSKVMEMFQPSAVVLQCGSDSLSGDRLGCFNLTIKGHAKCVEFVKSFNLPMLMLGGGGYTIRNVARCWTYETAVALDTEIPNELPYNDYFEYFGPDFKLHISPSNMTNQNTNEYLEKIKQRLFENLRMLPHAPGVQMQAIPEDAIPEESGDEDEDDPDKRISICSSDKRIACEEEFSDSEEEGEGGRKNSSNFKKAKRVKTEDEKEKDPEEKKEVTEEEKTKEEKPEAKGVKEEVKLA

On to `COc1cc2c(cc1O)CC[C@@H]1[C@@H]2CC[C@]2(C)[C@@H](O)CC[C@@H]12` [2-methoxy-estradiol-17β], for which, in the data set on Jurkat cells [1], the “anticancer activity in Jurkat cells known from the literature” value (“anticancer activity … from the literature” for short) is on record as “apoptotic agent”. The “anticancer activity in OVCAR-3 cells previously demonstrated” value with OVCAR-3 cells [2] is recorded as “anticancer activity”. Regarding `Nc1ncnc2c1ncn2[C@H]1C[C@H](O)[C@@H](CO)O1` [2′-deoxyadenosine], the “anticancer activity … from the literature” value in the data set on Jurkat cells [1] was “active in Jurkat cells”. As to `Nc1nc2c(ncn2[C@H]2C[C@H](O)[C@@H](CO)O2)c(=O)[nH]1` [2′-deoxyguanosine], the “anticancer activity … from the literature” value in the data set with Jurkat cells [1] is listed as “active in Jurkat cells”. Take `OC[C@H]1O[C@@H](n2cnc3c(O)ncnc32)C[C@@H]1O` [2′-deoxyinosine]: in the data set with Jurkat cells [1], the “anticancer activity … from the literature” value is given as “active in Jurkat cells”. On to `N[C@@H](Cc1cc(I)c(Oc2ccc(O)c(I)c2)c(I)c1)C(=O)O` [3′,3,5-triiodo-L-thyronine], for which, in the data set with OVCAR-3 cells [2], the “anticancer activity in OVCAR-3 cells previously demonstrated” value is recorded as “anticancer activity”. In the case of `Cc1cc2nc[nH]c2cc1C` [5,6-di-ethylbenzimidazole, 5,6-dimethylbenzimidazole], the activity at 100 µM with Jurkat cells [3] (setting [6]) stood at 61.4%.

Turning to `Clc1cc2nc[nH]c2cc1Cl` [5,6-dichlorobenzimidazole], the “effect on malignant erythroblasts” value in the data set with malignant erythroblasts is reported as “induces differentiation”. The “effect on RNA polymerase II” value in the data set on RNA polymerase II is “inhibiting”. For `CCCCCCCCCC(O)CCCCCCCC(=O)O` (stereo not drawn) [9-hydroxystearic acid], the “effect on histone deacetylase 1” value at histone deacetylase 1 is on record as “inhibition”. Further, the “effect on HT29 colon cancer cells” value in the data set with HT29 colon cancer cells is reported as “arrests HT29 colon cancer cells in G0/G1 phase”. `CC1=C(/C=C/C(C)=C/C=C/C(C)=C/C(=O)O)C(C)(C)CCC1` [all-trans-retinoic acid]: the “anticancer activity in OVCAR-3 cells previously demonstrated” value in the data set on OVCAR-3 cells [2] was “anticancer activity”. For `C=CC1=C(C)/C(=C/c2[nH]c(Cc3[nH]c(/C=C4\NC(=O)C(C)=C4C=C)c(C)c3CCC(=O)O)c(CCC(=O)O)c2C)NC1=O` [bilirubin], in the data set with Jurkat cells [3] (setting [6]), the activity at 100 µM amounted to 21.3%.

Turning to `C=C1/C(=C\C=C2/CCC[C@]3(C)[C@@H]([C@H](C)CCCC(C)(C)O)CC[C@@H]23)C[C@@H](O)C[C@@H]1O` [calcitriol], in the data set on OVCAR-3 cells [2], the “anticancer activity in OVCAR-3 cells previously demonstrated” value is “anticancer activity”. Regarding `CC(C)CCC[C@@H](C)[C@H]1CC[C@H]2[C@@H]3CC=C4C[C@@H](O)CC[C@]4(C)[C@H]3CC[C@]12C` [cholesterol], the activity at 100 µM in the data set on Jurkat cells [3] (setting [6]) was greater than 90%. As to `O=C(O)CC(O)(CC(=O)O)C(=O)O` [citric acid], the activity at 100 µM in the data set on Jurkat cells [3] (setting [6]) is greater than 90%. In the case of `C[C@]12CC[C@H](O)CC1=CC[C@@H]1[C@@H]2CC[C@]2(C)C(=O)CC[C@@H]12` [dehydroepiandrosterone], the “effect on growth of Jurkat cells (in words)” value with Jurkat cells [3] (50 μM) was “inhibited the growth”. Further, the “effect on proliferation of lymphoblasts (in words)” value in the data set on human lymphoblast cells is on record as “stimulated the proliferation”. Take `Nc1nc2ncc(CNc3ccc(C(=O)N[C@@H](CCC(=O)O)C(=O)O)cc3)nc2c(=O)[nH]1` [folic acid]: the activity at 100 µM in the data set with Jurkat cells [3] (setting [6]) is greater than 90%.

As to `CC(=O)CO` [hydroxyacetone], the activity at 100 µM in the data set with Jurkat cells [3] (setting [6]) is greater than 70%. Regarding `CCCCC/C=C\C/C=C\CCCCCCCC(=O)O` [linoleic acid], in the data set on Jurkat cells [1], the “anticancer activity … from the literature” value is “active in Jurkat cells”. For `COc1ccc2[nH]cc(CCNC(C)=O)c2c1` [melatonin], the “anticancer activity … from the literature” value in the data set with Jurkat cells [1] was “active in Jurkat cells”. In the case of `CC(=O)C=O` [methylglyoxal], the “anticancer activity … from the literature” value in the data set with Jurkat cells [1] is listed as “active in Jurkat cells”. As to `NC(=O)c1cccnc1` [nicotinamide], the “anticancer activity … from the literature” value with Jurkat cells [1] is recorded as “active in Jurkat cells”. For `CC(C)(CO)[C@@H](O)C(=O)NCCC(=O)O` [pantothenic acid], in the data set with Jurkat cells [3] (setting [6]), the activity at 100 µM was greater than 90%. Consider `CCCCC[C@H](O)/C=C/[C@H]1C(=O)C[C@H](O)[C@@H]1C/C=C\CCCC(=O)O` [prostaglandin D2], for which the “anticancer activity … from the literature” value with Jurkat cells [1] was “induces apoptosis”. The “effect on viability of normal T lymphocytes” value with normal T lymphocytes is given as “without inhibiting the viability”. For the compound `Cc1cc2nc3c(=O)[nH]c(=O)nc-3n(C[C@H](O)[C@H](O)[C@H](O)CO)c2cc1C` [riboflavin], the activity at 100 µM with Jurkat cells [3] (setting [6]) was greater than 70%.

As for `N[C@@H](CS(=O)O)C(=O)O` [sulfino-L-alanine, 3-sulfino-L-alanine], the “effect on growth of Jurkat cells (in words)” value in the data set on Jurkat cells [3] (single metabolite, 100 μM, 72 hour treatment) is reported as “did not inhibit the growth”. The “effect on growth of OVCAR-3 cells (in words)” value in the data set on OVCAR-3 cells [4] is “did not inhibit the growth”. Take `C[C@]12CC[C@H]3[C@@H](CCC4=CC(=O)CC[C@@]43C)[C@@H]1CC[C@@H]2O` [testosterone]: the “anticancer activity … from the literature” value in the data set with Jurkat cells [1] is given as “active in Jurkat cells”. Turning to `Cc1cn([C@H]2C[C@H](O)[C@@H](CO)O2)c(=O)[nH]c1=O` [thymidine], the “anticancer activity … from the literature” value with Jurkat cells [1] is recorded as “antineoplastic agent”. Regarding `NCCc1c[nH]c2ccccc12` [tryptamine], the “effect on HeLa cell growth” value in the data set with HeLa cell is “effective inhibitor”. The “effect on tryptophanyl-tRNA synthetase” value in [5] is given as “competitive inhibition”. `COc1cc(C(O)C(=O)O)ccc1O` (stereo not drawn) [vanillylmandelic acid]: the activity at 100 µM in the data set with Jurkat cells [3] (setting [6]) is greater than 90%. Take `CCCCCCCCCCCCCCCCC(O)C(=O)O` (stereo not drawn) [α-hydroxystearic acid]: the activity at 100 µM in the data set on Jurkat cells [3] (setting [6]) came to 67.8%.

On to menaquinone, for which the “Jurkat cell growth as percentage of the untreated control” value in the data set with Jurkat cells [3] (setting [6]) amounted to 11.3%. Further, the “effect on HL-60 cells” value with HL-60 cells was “induce G0/G1 arrest, differentiation, and apoptosis”. Regarding sphingolipid GD3, the “anticancer activity … from the literature” value with Jurkat cells [1] is “active in Jurkat cells”.
